Data taken from PubChem BioAssay (NCI).
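Following 48 hours of exposure in 96-well plates, responses at five concentrations were used to interpolate endpoints linearly. At the GI50, growth is halved. Definition used: TGI = concentration required for complete inhibition of growth.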

Assays:
Assay in all cases: NCI-60 cell line screen, 48 h
TK-10 renal = system: TK-10 renal
MDA-MB-231 breast = system: MDA-MB-231 breast
U251 CNS = system: U251 CNS
SN12C renal = system: SN12C renal
SF-268 CNS = system: SF-268 CNS
PC-3 prostate = system: PC-3 prostate
MOLT-4 leukemia = system: MOLT-4 leukemia
SNB-19 CNS = system: SNB-19 CNS
LOX IMVI melanoma = system: LOX IMVI melanoma
SF-295 CNS = system: SF-295 CNS
OVCAR-5 ovarian = system: OVCAR-5 ovarian
NCI-H226 lung = system: NCI-H226 lung
HL-60(TB) leukemia = system: HL-60(TB) leukemia
RPMI-8226 leukemia = system: RPMI-8226 leukemia
BT-549 breast = system: BT-549 breast
HCC-2998 colon = system: HCC-2998 colon
COLO 205 colon = system: COLO 205 colon
MALME-3M melanoma = system: MALME-3M melanoma
OVCAR-3 ovarian = system: OVCAR-3 ovarian
HCT-15 colon = system: HCT-15 colon
EKVX NSCLC = system: EKVX NSCLC
SK-MEL-2 melanoma = system: SK-MEL-2 melanoma
IGROV1 ovarian = system: IGROV1 ovarian
DU-145 prostate = system: DU-145 prostate
SR leukemia = system: SR leukemia
MCF7 breast = system: MCF7 breast
KM12 colon = system: KM12 colon
ACHN renal = system: ACHN renal
NCI/ADR-RES ovarian = system: NCI/ADR-RES ovarian

With `C#CCOc1cccc(-c2nc(N)nc(Nc3ccccc3SSc3ccccc3Nc3nc(N)nc(-c4cccc(OCC#C)c4)n3)n2)c1` the TGI (TK-10 renal) was greater than 33.3 µM, the GI50 (MDA-MB-231 breast) was 4.78 µM and the TGI (MDA-MB-231 breast) was greater than 33.3 µM. For the same molecule, the GI50 (U251 CNS) was 1.08 µM, the TGI (U251 CNS) was 3.82 µM and the GI50 (SN12C renal) was 0.971 µM. It also gave a TGI (SN12C renal) of 5.37 µM, a GI50 (SF-268 CNS) of 3.94 µM and a TGI (SF-268 CNS) of 12.1 µM. For the same molecule, the GI50 (PC-3 prostate) was 1.61 µM, the TGI (PC-3 prostate) was greater than 33.3 µM and the GI50 (MOLT-4 leukemia) was 4.45 µM. For the same molecule, the TGI (MOLT-4 leukemia) was greater than 33.3 µM, the GI50 (SNB-19 CNS) was 7.37 µM and the TGI (SNB-19 CNS) was greater than 33.3 µM. For the same molecule, the GI50 (LOX IMVI melanoma) was 0.746 µM, the TGI (LOX IMVI melanoma) was 1.8 µM and the GI50 (SF-295 CNS) was 0.751 µM. For the same molecule, the TGI (SF-295 CNS) was 1.93 µM, the GI50 (OVCAR-5 ovarian) was 7.32 µM and the TGI (OVCAR-5 ovarian) was 28.2 µM. It also gave a GI50 (NCI-H226 lung) of 4.52 µM, a TGI (NCI-H226 lung) greater than 33.3 µM and a GI50 (HL-60(TB) leukemia) of 9.92 µM. The TGI (HL-60(TB) leukemia) was greater than 33.3 µM, the GI50 (RPMI-8226 leukemia) was 1.55 µM and the TGI (RPMI-8226 leukemia) was 17.1 µM. The GI50 (BT-549 breast) was 8.52 µM, the TGI (BT-549 breast) was greater than 33.3 µM and the GI50 (HCC-2998 colon) was greater than 33.3 µM. For the same molecule, the TGI (HCC-2998 colon) was greater than 33.3 µM, the GI50 (COLO 205 colon) was greater than 33.3 µM and the TGI (COLO 205 colon) was greater than 33.3 µM. The GI50 (MALME-3M melanoma) was greater than 33.3 µM, the TGI (MALME-3M melanoma) was greater than 33.3 µM and the GI50 (OVCAR-3 ovarian) was 18.2 µM. For the same molecule, the TGI (OVCAR-3 ovarian) was greater than 33.3 µM, the GI50 (HCT-15 colon) was 2.31 µM and the TGI (HCT-15 colon) was greater than 33.3 µM. The GI50 (EKVX NSCLC) was 7.19 µM, the TGI (EKVX NSCLC) was greater than 33.3 µM and the GI50 (SK-MEL-2 melanoma) was 16.9 µM. The TGI (SK-MEL-2 melanoma) was greater than 33.3 µM, the GI50 (IGROV1 ovarian) was 1.73 µM and the TGI (IGROV1 ovarian) was 24.2 µM. The GI50 (DU-145 prostate) was 10.6 µM, the TGI (DU-145 prostate) was greater than 33.3 µM and the GI50 (SR leukemia) was 1.41 µM. It also gave a TGI (SR leukemia) greater than 33.3 µM, a GI50 (MCF7 breast) of 17.1 µM and a TGI (MCF7 breast) greater than 33.3 µM. It also gave a GI50 (KM12 colon) of 1.69 µM, a TGI (KM12 colon) of 11.1 µM and a GI50 (ACHN renal) of 1.19 µM. It also gave a TGI (ACHN renal) of 4.35 µM, a GI50 (NCI/ADR-RES ovarian) of 1.89 µM and a TGI (NCI/ADR-RES ovarian) of 8.56 µM.
